≈ marks a conversion by molar mass, not a printed value. Counter-ions that a name gives are not always drawn. Like-named read-outs stand apart in the source and are kept apart here.
Key:
[1] = test system: self-luminescent tuberculosis; assay: microbe, parasite or virus in culture; type: cell-based
[2] = test system: clinical sorted MDR-TB P91; assay: microbe, parasite or virus in culture; type: cell-based; settings: Mycobacterium tuberculosis, MDRTBP91
[3] = test system: clinical sorted MDR-TB P105; assay: microbe, parasite or virus in culture; type: cell-based; settings: Mycobacterium tuberculosis, MDRTBP105
[4] = test system: clinical sorted MDR-TB P103; assay: microbe, parasite or virus in culture; type: cell-based; settings: Mycobacterium tuberculosis, MDRTBP103
[5] = test system: Mycobacterium tuberculosis standard strain H37Rv; assay: Plate MIC of Example 53, standard strain H37Rv; type: cell-based
[6] = test system: mycobacterium tuberculosis self-luminescent bacteria H37Ra; settings: for spleen anti-tuberculosis activity compared with the positive control Rifampicin: in vivo
in vivo = assay: in vivo; parameters: species or system SD rats; settings: rat; for bioavailability / AUC(0-inf) / Cmax / T^1/2 / Tmax: SD
Description: Example 55: Pharmacokinetic Studies of Compounds TJ170298 and TJ170385
1. Administration and Sample Collection a. Rat intravenous administration: SD rats 3, weight 180˜220 g. Fasting 12 h before administration, a small amount of food was allowed during the experiment, and water was free. The compounds TJ170298 and TJ170385 were administered intravenously at a dose of 2 mg/kg. The rats were respectively taken 0.3 mL orbital blood at 2 min, 10 min, 30 min, 1.0 h, 2.0 h, 3.0 h, 4.0 h, 6.0 h, 8.0 h, 12.0 h, 21 h, 24.0 h, 30 h, 36 h, 48 h, 60 h, 72 h after administration, which was then placed in heparinized test tube, centrifuged 10 min at 6000 rpm, and plasma was separated, preserved at 4° C. to be measured. […]
b. Rat oral administration: SD rats 3, weight 180˜220 g. Fasting for 12 h before administration, a small amount of food was allowed during the experiment, and water was free. The compounds TJ170298 and TJ170385 were orally administered at a dose of 10 mg/kg, respectively. The rats were respectively taken 0.3 mL orbital blood at 2 min, 10 min, 30 min, 1.0 h, 2.0 h, 3.0 h, 4.0 h, 6.0 h, 8.0 h, 12.0 h, 21 h, 24.0 h, 30 h, 36 h, 48 h, 60 h, 72 h after administration, which was then placed in heparinized test tube, centrifuged 10 min at 6000 rpm, and plasma was separated, preserved at 4° C. to be measured.
2. Determination of Plasma Samples a. Plasma Sample Treatment
150 μl of the internal standard solution ([…], acetonitrile solution) was added to 50 μL of the above plasma sample, mixed well; after eddy mixing for 2 min, centrifuge for 30 min (13000 rpm, 4° C.), supernatant was taken to another centriguge tube, and 20 μL of which was taken for LC/MS/MS analysis. […]
b. Preparation of Standard Curve
50 μL of rat blank plasma was taken, to which 10 μL of compound standard series solution was added to prepare compound plasma samples equivalent to plasma concentration of 20, 50, 100, 500, 1000, 2000, 4000, 6000, 12000, 40000 ng/mL. According to “plasma sample treatment” item, the standard curve was established. The concentration (X) of an analyte is as the abscissa, the peak area ratio (y) of the analyte and the internal standard is as the ordinate, and the regression is performed by the weighted (W=1/x2) least squares method to obtain the linear regression Equation, that is, the standard curve.
C. Data Processing and Analysis
The pharmacokinetic parameters of rats after administration were calculated by DAS 2.0 software.

[7] = test system: Mycobacterium tuberculosis standard strain H37Rv; assay: MIC of Mycobacterium tuberculosis by a plate method; settings: 7H11 plates, 37° C. for 4 weeks, colony count
[8] = Mycobacterium tuberculosis, 72 h, read-out: MIClux
[9] = Mycobacterium tuberculosis, 72 h; read-out: MIClux

SMILES: CCc1nn2ccc(Cl)cc2c1C(=O)NCc1ccc(N2CCC(c3ccc(OC(F)(F)F)cc3)CC2)cc1 [TJ170298, 5-chloro-2-ethyl-N-(4-(4-(4-(trifluoromethoxy)phenyl)piperidine-1-yl)benzyl) pyrazolo [1,5-a]pyridine-3-carboxamide]
- MIC [1, 8]: < 1 µg/mL
- MIC [2]: < 0.075 µg/mL
- MIC [3]: 0.15 µg/mL (≈ 0.269 µM)
- MIC [4]: < 0.075 µg/mL
- MIC [5]: 0.012 µg/mL
- in vivo anti-tuberculosis activity (luminous values within live mice) [6]: obvious in vivo anti-tuberculosis activity
- in vivo anti-tuberculosis activity compared with the positive control Rifampicin [6]: equal to or better than that of the positive control Rifampicin
- spleen anti-tuberculosis activity compared with the positive control Rifampicin [6]: bad than that of the positive control Rifampicin
- pharmacokinetic properties (in words) (in vivo): good pharmacokinetic properties

SMILES: Cc1nn2ccccc2c1C(=O)NCc1ccc(N2CCC(c3ccc(OC(F)(F)F)cc3)CC2)cc1 [TJ170381, 2-methyl-N-(4-(4-(4-(trifluoromethoxy)phenyl)piperidine-1-yl)benzyl) pyrazolo [1,5-a] pyridine-3-carboxamide]
- MIC [1, 8]: < 1 µg/mL
- MIC [7]: 0.1 µg/mL

SMILES: Cc1nn2ccc(Cl)cc2c1C(=O)NCc1ccc(N2CCC(c3ccc(OC(F)(F)F)cc3)CC2)cc1 [TJ170372, 5-chloro-2-methyl-N-(4-(4-(4-(trifluoromethoxy)phenyl)piperidine-1-yl)benzyl) pyrazolo [1,5-a] pyridine-3-carboxamide]
- MIC [1, 9]: < 1 µg/mL
- in vivo anti-tuberculosis activity (luminous values within live mice) [6]: obvious in vivo anti-tuberculosis activity
- in vivo anti-tuberculosis activity compared with the positive control Rifampicin [6]: equal to or better than that of the positive control Rifampicin
- spleen anti-tuberculosis activity compared with the positive control Rifampicin [6]: bad than that of the positive control Rifampicin
- MIC [7]: 0.01 µg/mL

SMILES: CCc1nn2ccc(Cl)cc2c1C(=O)NCc1ccc(C(F)(F)F)cc1 [TJ170322]
- MIC [1, 9]: < 1 µg/mL
- MIC [7]: 0.1 µg/mL

SMILES: O=C(NCc1ccc(N2CCC(c3ccc(OC(F)(F)F)cc3)CC2)cc1)c1c(C2CC2)nn2ccc(Cl)cc12 [TJ170375, 5-chloro-2-cyclopropyl-N-(4-(4-(4-(trifluoromethoxy)phenyl)piperidine-1-substituted)benzyl) pyrazolo [1,5-a] pyridine-3-carboxamide]
- MIC [1, 9]: < 1 µg/mL
- MIC [7]: 0.1 µg/mL

SMILES: CO[C@H]1/C=C/O[C@@]2(C)Oc3c(C)c(O)c4c(O)c(c(/C=N/N5CCN(C)CC5)c(O)c4c3C2=O)NC(=O)/C(C)=C\C=C\[C@H](C)[C@H](O)[C@@H](C)[C@@H](O)[C@@H](C)[C@H](OC(C)=O)[C@@H]1C [RIF, rifampicin, reference compound]
- MIC [2]: 1 to 10 µg/mL (≈ 1.22 to 12.2 µM)
- MIC [3]: > 10 µg/mL
- MIC [4]: > 10 µg/mL

SMILES: NNC(=O)c1ccncc1 [isoniazid, reference compound]
- MIC [7]: <=0.1 μg/mL

SMILES: CCc1nn2ccc(Cl)cc2c1C(=O)NCc1ccc(N2CCC(c3ccc(OC(F)(F)F)cc3)CC2)cc1 [TJ170298 (hydrochloride), 5-chloro-2-ethyl-N-(4-(4-(4-(trifluoromethoxy)phenyl)piperidine-1-yl)benzyl) pyrazolo [1,5-a]pyridine-3-carboxamide]
- bioavailability (in vivo): 24.1%
- AUC(0-inf) (in vivo; iv, 2 mg/kg): 3900 ng·h/mL
- Cmax (in vivo; iv, 2 mg/kg): 1550 ng/mL
- T^1/2 (in vivo; iv, 2 mg/kg): 19.975 h
- Tmax (in vivo; iv, 2 mg/kg): 0.033 h
- AUC(0-inf) (in vivo; po, 10 mg/kg): 4700 ng·h/mL
- Cmax (in vivo; po, 10 mg/kg): 509 ng/mL
- T^1/2 (in vivo; po, 10 mg/kg): 19.699 h
- Tmax (in vivo; po, 10 mg/kg): 2 h

SMILES: Cc1ccn2nc(C)c(C(=O)NCc3ccc(N4CCC(c5ccc(OC(F)(F)F)cc5)CC4)cc3)c2c1 [TJ170385, 2,5-dimethyl-N-(4-(4-(4-(trifluoromethoxy)phenyl)piperidine-1-yl)benzyl) pyrazolo [1,5-a] pyridine-3-carboxamide]
- MIC [1, 8]: < 1 µg/mL
- in vivo anti-tuberculosis activity (luminous values within live mice) [6]: obvious in vivo anti-tuberculosis activity
- in vivo anti-tuberculosis activity compared with the positive control Rifampicin [6]: equal to or better than that of the positive control Rifampicin
- spleen anti-tuberculosis activity compared with the positive control Rifampicin [6]: bad than that of the positive control Rifampicin
- bioavailability (in vivo): 94.5%
- AUC(0-inf) (in vivo; iv, 2 mg/kg): 2030 ng·h/mL
- Cmax (in vivo; iv, 2 mg/kg): 1040 ng/mL
- T^1/2 (in vivo; iv, 2 mg/kg): 10.933 h
- AUC(0-inf) (in vivo; po, 10 mg/kg): 9590 ng·h/mL
- Cmax (in vivo; po, 10 mg/kg): 644 ng/mL
- T^1/2 (in vivo; po, 10 mg/kg): 27.374 h
- Tmax (in vivo; po, 10 mg/kg): 2 h
- pharmacokinetic properties (in words) (in vivo): good pharmacokinetic properties
- MIC [7]: 0.01 µg/mL

SMILES: Cc1ccn2nc(C)c(C(=O)NCc3ccc(N4CCC(Oc5ccc(OC(F)(F)F)cc5)CC4)cc3)c2c1 [TJ830161, 2,5-dimethyl-N-(4-(4-(4-(trifluoromethoxy)phenoxy)piperidine-1-yl)benzyl) pyrazolo [1,5-a] pyridine-3-carboxamide]
- MIC [1, 9]: < 1 µg/mL

SMILES: CCOc1ccn2nc(C)c(C(=O)NCc3ccc(N4CCC(c5ccc(OC(F)(F)F)cc5)CC4)cc3)c2c1 [TJ830108, 5-methyl-2-ethoxy-N-(4-(4-(4-(trifluoromethoxy)phenyl)piperidine-1-substituted)benzyl) pyrazolo [1,5-a] pyridine-3-carboxamide]
- MIC [1, 9]: < 1 µg/mL

SMILES: Cc1ccn2nc(C)c(C(=O)NCc3ccc(-c4ccc(OC(F)(F)F)cc4)cn3)c2c1 [TJ830133, 2,5-dimethyl-N-((5-(4-(trifluoromethoxy)phenyl)pyridine-2-yl)methyl) pyrazolo [1,5-a] pyridine-3-carboxamide]
- MIC [1, 9]: < 1 µg/mL

SMILES: Cc1ccn2nc(C)c(C(=O)NCc3ccc(N4CCCCC4)cc3)c2c1 [TJ830146, 2,5-dimethyl-N-(4-(piperidine-1-yl)benzyl) pyrazolo [1,5-a] pyridine-3-carboxamide]
- MIC [1, 9]: < 1 µg/mL

SMILES: Cc1ccn2nc(C)c(C(=O)NCc3ccc(N(C)C)cc3)c2c1 [TJ830136, N-(4-(dimethylamino)benzyl)-2,5-dimethylpyrazolo [1,5-a] pyridine-3-carboxamide]
- MIC [1, 9]: < 1 µg/mL

SMILES: Cc1nn2ccc(-c3ccccc3)cc2c1C(=O)NCc1ccc(N2CCC(c3ccc(OC(F)(F)F)cc3)CC2)cc1 [TJ830012, 5-phenyl-2-methyl-N-(4-(4-(4-(trifluoromethoxy)phenyl)piperidine-1-yl)benzyl) pyrazolo [1,5-a] pyridine-3-carboxamide]
- MIC [1, 9]: > 10 µg/mL
